Measured values reported in patent US6624165B2, “Cyclopentene derivatives useful as antagonists of the motilin receptor” (Ortho-McNeil Pharmaceutical, Inc., priority 2000, dated 2003).

Biological target: T1, motilin receptors located on the colon of mature rabbits (Oryctolagus cuniculus, UniProt G1T803)
T1 construct: The muscle tissues were homogenized in 10 volumes of buffer; from tissue; host or cells: colon smooth muscle of mature New Zealand rabbits, crude membrane homogenate
Test: Competition with radiolabeled motilin (porcine) for motilin receptors of rabbit colon membranes
Format: binding
Conditions: @100 nM, I125 motilin (porcine)
Experimental: A compound of the invention was tested for its ability to compete with radiolabeled motilin (porcine) for the motilin receptors located on the colon of mature rabbits. The colon from mature New Zealand rabbits was removed, dissected free from the mucosa and serosa layers, and diced into small pieces. The muscle tissues were homogenized in 10 volumes of buffer (50 mM Tris-Cl 10 MM MgCl2, 0.1 mg/mL bactracin, and 0.25 mM Peflabloc, pH 7.5) in a Polytron (29,000 rpm, 4×15 seconds). The homogenate was centrifuged at 1000×g for 15 min. and the supernatant discarded. The pellet was washed twice before being suspended in homogenizing buffer. This crude homogenate was then passed first through a 19 gauge needle then a 23 gauge needle to further suspend the material and stored at −80° C. […] The pellet was counted in the gamma counter to determine the percentage of […] motilin and thereby the percent inhibition of the test compound.
% Inhibition was Determined by Standard Techniques

T1 sequence (G1T803 1-400): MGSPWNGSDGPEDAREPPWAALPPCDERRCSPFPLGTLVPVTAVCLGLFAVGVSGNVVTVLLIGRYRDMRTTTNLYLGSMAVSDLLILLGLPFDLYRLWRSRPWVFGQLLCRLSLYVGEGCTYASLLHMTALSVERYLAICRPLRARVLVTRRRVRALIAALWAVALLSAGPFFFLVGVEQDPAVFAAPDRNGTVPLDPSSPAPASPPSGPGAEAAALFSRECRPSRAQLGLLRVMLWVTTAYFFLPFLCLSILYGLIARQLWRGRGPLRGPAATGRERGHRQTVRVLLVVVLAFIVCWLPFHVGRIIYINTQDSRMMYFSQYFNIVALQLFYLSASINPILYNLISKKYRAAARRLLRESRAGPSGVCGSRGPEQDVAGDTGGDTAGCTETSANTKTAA

In the case of `O=C(Nc1nncs1)N(CC1=CC(Cc2ccccc2)(NC(=O)C(Cl)(Cl)Cl)CC1)c1cccc(OCCN2CCOCC2)c1` (stereo not shown) [Example 2, 3-Benzyl-3-trichloroacetylamino—N-[(3-(2-morpholinoethoxy)phenyl)-N-[(1,3,4-thiadiazol-2-yl)aminocarbonyl)amino]methylcyclopentene], the “% Inhibition” value is reported as 17%.
